Laboratory results reported in publication PMC6736568, “Discovery of Novel Anti-cryptosporidial Activities From Natural Products by in vitro High-Throughput Phenotypic Screening” (Frontiers in Microbiology, 2019).
Where two headings read alike, the source gives them in different places.

Assays:
Cryptosporidium parvum = test: qRT-PCR assay of the growth of C. parvum in vitro in HCT-8 host cells (primary and secondary screening, EC50); format: cell-based; settings: for Inhibition (%): primary screening at 10 uM; for % Inhibition (3.3 uM): secondary screening at 3.3 uM
[1] = primary screening at 10 uM, from Hs18S ΔCT
[2] = primary screening at 10 uM, treated vs control

Compound	Inhibition (%) (Cryptosporidium parvum)	Cytotoxicity (%) (HCT-8 host cells (Hs18S); [1])	Hs18S ΔCT (HCT-8 host cells (Hs18S); [2])	Hs18S ΔCT (HCT-8 host cells (Hs18S))	Cytotoxicity (%) (HCT-8 host cells (Hs18S); 10 µM)	% Inhibition (3.3 uM) (Cryptosporidium parvum) [%]
C[C@]12CCC(=O)C[C@@H]1CC[C@@H]1[C@@H]2CC[C@]2(C)C(=O)CC[C@@H]12 [5alpha-ANDROSTAN-3,17-DIONE]	-13.88	-0.1	0.00			
CC(C)CCC[C@@H](C)[C@H]1CC[C@H]2[C@@H]3CC[C@H]4C[C@@H](O)CC[C@]4(C)[C@H]3CC[C@]12C [5alpha-CHOLESTANOL]	-23.23	-2.4	-0.03			
O=c1cc(-c2ccc(O)cc2)oc2ccc(O)cc12 [6,4'-DIHYDROXYFLAVONE]	28.18	17.9	0.28			
COc1cc2occ(-c3ccc(OC)c(OC)c3OC)c(=O)c2cc1OC [6,7,2',3',4'-PENTAMETHOXYISOFLAVONE]	39.55	-30.1	-0.38			
O=c1cc(-c2ccccc2O)oc2cc(O)ccc12 [7,2'-DIHYDROXYFLAVONE]	-16.96	12.6	0.19			
COc1ccc(-c2coc3cc(OC)ccc3c2=O)cc1 [7,4'-DIMETHOXYISOFLAVONE]	1.31	3.0	0.04			
CC(=O)OCC1=C(C(=O)O)N2C(=O)[C@@H](N)[C@H]2SC1 [7-AMINOCEPHALOSPORANIC ACID]	-11.44	12.1	0.19			
CC(=O)O[C@H]1C[C@@H](OC(C)=O)C(C)(C)C2CC(=O)[C@]3(C)C(CC[C@@]4(C)[C@H](c5ccoc5)OC(=O)[C@H]5O[C@]543)[C@]21C (some centres unmarked) [7-DEACETOXY-7-OXOKHIVORIN]	40.16	13.5	0.21			
CC(=O)O[C@@H]1C[C@]2(C)[C@@H](C(C)=O)CC[C@H]2[C@@H]2CCC3=CC(=O)CC[C@]3(C)[C@H]21 [11a-ACETOXYPROGESTERONE]	10.83	-16.6	-0.22			
CC(=O)Oc1ccc2c(C)cc(=O)oc2c1 [ACETYL HYMETOCHROME]	-35.81	-4.5	-0.06			
CNCC(=O)c1ccc(O)c(O)c1.Cl [ADRENOLONE HYDROCHLORIDE]	26.43	-16.6	-0.22			
CCCCCCCCCCCCCCCCC(C(=O)O)C(O)(CC(=O)O)C(=O)O (centres unmarked) [AGARIC ACID]	-4.50	18.9	0.30			
O=C(O)CCCCCCCC(O)C(O)CCCCCCO (centres unmarked) [ALEURETIC ACID]	36.82			0.24	15.2	
C[C@]12C=CC(=O)C=C1CC[C@@H]1[C@@H]2CC[C@]2(C)C(=O)CC[C@@H]12 [ANDROSTA-1,4-DIEN-3,17-DIONE]	15.07	0.7	0.01			
Br.CN1[C@H]2C[C@H](OC(=O)[C@H](CO)c3ccccc3)C[C@@H]1[C@@H](O)C2 [ANISODAMINE HYDROBROMIDE]	5.51	-32.6	-0.41			
COc1cc2c(cc1OC)-c1c(oc3cc(O)cc(O)c3c1=O)CO2 [APOTOXICAROL]	1.64	10.7	0.16			
CN[C@@H]1[C@@H](O[C@H]2O[C@H](CO)[C@@H](N)[C@H](O)[C@H]2O)O[C@H]2C[C@@H](N)[C@@H](O[C@H]3[C@H](O)[C@@H](O)[C@H](N)C[C@@H]3N)O[C@@H]2[C@@H]1O.O=S(=O)(O)O [APRAMYCIN SULFATE]	42.68	-3.1	-0.04			
OC[C@@H](O)C(O)[C@H](O)CO [ARABITOL]	8.73	-2.6	-0.04			
CC(C)(O)[C@@H]1CC[C@](C)([C@H]2[C@@H](O)C[C@@]3(C)[C@@H]4C[C@H](O[C@@H]5O[C@H](CO)[C@@H](O)[C@H](O)[C@H]5O)[C@H]5C(C)(C)[C@@H](O[C@@H]6OC[C@@H](O)[C@H](O)[C@H]6O)CC[C@@]56C[C@@]46CC[C@]23C)O1 [ASTRAGALOSIDE IV]	-18.98	-14.1	-0.19			
C=CCCCCCCCCCCCC(O)CC(O)COC(C)=O (centres unmarked) [AVOCADENE ACETATE]	-0.39	-38.4	-0.47			
C=CCCCCCCCCCCCc1ccco1 [AVOCADENOFURAN]	-21.47	-32.5	-0.41			
COc1ccc(-c2coc3cc(O)cc(O)c3c2=O)cc1 [BIOCHANIN A]	14.14	6.9	0.10			
O=C(O)CC[N+](=O)[O-] [BOVINOCIDIN]	41.04	-25.1	-0.32			

Compound	Inhibition (%) (Cryptosporidium parvum)	Cytotoxicity (%) (HCT-8 host cells (Hs18S); [1])	Hs18S ΔCT (HCT-8 host cells (Hs18S); [2])	Hs18S ΔCT (HCT-8 host cells (Hs18S))	Cytotoxicity (%) (HCT-8 host cells (Hs18S); 10 µM)	% Inhibition (3.3 uM) (Cryptosporidium parvum) [%]
CC1=CC2C(C(C)C)CCC(C)(O)C2CC1 (centres unmarked) [CADIN-4-EN-10-OL]	-28.21	-34.1	-0.42			
CC1=C(/C=C/C(C)=C/C=C/C(C)=C/C=C/C=C(C)/C=C/C=C(C)/C=C/C2=C(C)C(=O)CCC2(C)C)C(C)(C)CCC1=O [CANTHAXANTHIN, CANTHAXANTHIN (euglenanone)]	52.72				-19.8%	
C[N+](C)(C)CC(O)CC(=O)O.[Cl-] (stereo not drawn) [CARNITINE (dl) HYDROCHLORIDE]	-3.41	-73.4	-0.79			
OC[C@H]1O[C@@H](O[C@H]2[C@H](O)[C@@H](O)[C@H](O)O[C@@H]2CO)[C@H](O)[C@@H](O)[C@@H]1O [CELLOBIOSE (D[+])]	-5.56		0.91			
CC(C)CCC[C@@H](C)[C@H]1CC[C@H]2[C@@H]3CC[C@H]4CCCC[C@]4(C)[C@H]3CC[C@]12C [CHOLESTANE]	13.94	12.2	0.19			
CC(=O)O[C@H]1CC[C@@]2(C)C(=CC[C@H]3[C@@H]4CC[C@H]([C@H](C)CCCC(C)C)[C@@]4(C)CC[C@@H]32)C1 [CHOLESTERYL ACETATE]	-22.86	-5.8	-0.08			
CC(C)CCC[C@@H](C)[C@H]1CC[C@H]2[C@@H]3CC=C4C[C@@H](OC(=O)c5ccccc5)CC[C@]4(C)[C@H]3CC[C@]12C [CHOLESTERYL BENZOATE]	-14.05	5.3	0.08			
C[N+](C)(C)CCO.[Cl-] [CHOLINE CHLORIDE]	20.98			0.33	20.6	
C[C@H](CC(=O)[C@@H]1OC1(C)C)[C@H]1C(=O)C[C@@]2(C)C3=CC[C@H]4C(C)(C)[C@@H](O[C@@H]5OC[C@@H](O)[C@H](O)[C@H]5O)CC[C@@]45C[C@@]35[C@@H](O)C[C@]12C [CIMICIFUGOSIDE H1]	58.34	69.4	1.71			
COc1cc2cc3c4cc(OC)c(OC)cc4cc[n+]3c(C)c2cc1OC.[Cl-] [CORALYNE CHLORIDE]	-5.22	-23.6	-0.31			
C[C@]12CCC(=O)C=C1CC[C@@H]1[C@@H]2C(=O)C[C@@]2(C)[C@H]1CC[C@]2(O)C(=O)CO [CORTISONE]	-10.93		-0.17			
COC(=O)[C@H]1[C@H]2C[C@H]3c4[nH]c5ccccc5c4CCN3C[C@@H]2CC[C@@H]1O [CORYNANTHINE]	-58.95	-53.1	-0.61			
N[C@@H]1CONC1=O [CYCLOSERINE (D)]	-10.45	-30.0	-0.38			
COc1cc2c(cc1OC)Cc1cc(OC)c(OC)cc1Cc1cc(OC)c(OC)cc1C2 [CYCLOVERATRYLENE]	83.81	-2.2	-0.03			-85
OC[C@H]1O[C@H](O[C@H]2[C@H](O)[C@@H](O)[C@H](O)O[C@@H]2CO)[C@H](O)[C@@H](O)[C@@H]1O [D-(+)-MALTOSE]	55.12		-0.19			
COc1ccc(-c2cc(=O)c3c(O)c(OC)c(OC)c(OC)c3o2)cc1OC [DEMETHYLNOBILETIN]	91.41	-4.6	-0.06			29
CC(=O)O[C@@H]1C[C@H]2C(C)(C)C(=O)C=C[C@]2(C)[C@H]2CC[C@]3(C)C(=CC(=O)O[C@H]3c3ccoc3)[C@@]21C [DEOXYGEDUNIN]	28.62	15.4	0.24			
CC(=O)O[C@H]1C[C@@H](OC(C)=O)C(C)(C)[C@@H]2C[C@@H](OC(C)=O)[C@@]3(C)C4=CC(=O)O[C@@H](c5ccoc5)[C@]4(C)CC[C@@H]3[C@@]12C [DEOXYKHIVORIN]	27.34	7.7	0.11			
Cl.c1ccc2c(c1)CN1CCCC1=N2 [DEOXYPEGANINE HYDROCHLORIDE]	36.29			-0.06	-4.6	
C=C[C@@]1(C)CC(=O)[C@@]2(O)[C@](C)(O1)[C@@H](O)[C@@H](O)C1C(C)(C)CC[C@H](O)[C@@]12C (some centres unmarked) [DESACETYLCOLFORSIN]	-6.53	14.3	0.22			
CC(=O)[C@H]1CC[C@H]2[C@@H]3CCC4C[C@H](O)CC[C@]4(C)[C@H]3C[C@H](O)[C@]12C (stereo partly drawn) [DIHYDROXY (3alpha,12alpha)PREGNAN-20-ONE]	-32.59	-29.0	-0.37			
COC(=O)/C(C)=C\CC12OC(C)(C)C3CC(C=C4C(=O)c5c(c(CCC(C)(C)Cl)c6c(c5OC)C5CC(C)(CCC5=C(C)C)O6)OC431)C2=O (centres unmarked) [DIMETHYL GAMBOGINATE]	93.45	79.7	2.30			47
